Assay results as given in patent publication US20150315241A1, “Antibiotic Peptides” (priority 2007, published 2015).
In brackets after ≈: the same amount, converted by molar mass. Where a SMILES comes first, the peptide text is derived from it. Where no end group is shown, it is not given here. [ ]: non-standard residue; d: D form. Cha = N[C@@H](CC1CCCCC1)C(=O)O; NMeL = CN[C@@H](CC(C)C)C(=O)O; Orn = NCCC[C@H](N)C(=O)O

Tests used:
E. coli 45849 = experiment: Growth inhibition assay (MIC); format: cell-based, Escherichia coli
Experimental: (§1) The minimal inhibition concentrations (MIC) of the apidaecin-derived peptides and peptide-derivatives were determined by a growth inhibition assay using a serial peptide dilution in sterilized round-bottom 96-well plates (polystyrene, U-bottom, Greiner Bio-One GmbH) with a final volume of 100 μL per well. The bacteria, e.g., E. coli BL21 A1, were grown in nutrient broth (NB, Carl Roth GmbH+Co. KG, Karlsruhe, Germany) at 37° C. over night. To each well of the 96-well plate, 50 μL of the overnight culture adjusted to 5×10^6 CFU/mL in 1% TSB were added. Lyophilized peptides and peptidomimetics were dissolved in 1% TSB (tryptic soy broth) or water to give a final concentration of 250 μg/mL. Fifty μL of the peptide or peptidomimetics solution were added to the first well of a row on the plate and mixed. Fifty μL of the first well containing the peptide solution were transferred to the second well, mixed and again 50 μL transferred to the next well and so on. Thereby, a two-fold dilution series was obtained starting at 250 μg/mL in the first well down to 120 ng/mL in the 12th well of a row giving a final peptide or peptidomimetics concentration from 125 μg/mL (well 1) to 60 ng/mL (well 12). Plates were incubated at 37° C. for 20 hrs. The absorbance was measured at 595 nm using a TECAN micro plate spectrophotometer (Tecan, Germany). All peptides and peptidomimetics were measured in triplicates. Sterilized water was used as a negative control.
(§2) The following multidrug resistant bacteria strains were tested: • Eschericha coli 45849 and D31, • Klebsiella pneumoniae 123132 and K6, • Salmonella typhi S5 and Salmonella enterica subsp. enterica serovar Typhimurium (ATCC 700408), • Rhizobium radiobacter (ATCC 15955 deposited as Agrobacterium tumefaciens).

S. typhi S5 = format: cell-based, Salmonella typhi; conditions: S5, 20 h
Experimental: as §1, §2

E. coli D31 = format: cell-based, Escherichia coli; conditions: D31, 20 h
Experimental: as §1, §2

K. Pneumonia 123132 = experiment: Growth inhibition assay (MIC); format: cell-based, Klebsiella pneumoniae
Experimental: as §1, §2

[1] = system: K. Pneumonia K6, ATCC 700603; experiment: Growth inhibition assay (MIC); format: cell-based, Klebsiella pneumoniae; conditions: multidrug resistant strain; 1% TSB, 37° C., 20 hrs
Experimental: as §1, §2

[2] = system: S. enterica subsp. Enterica serovar. typhi G10215 ATCC 700408; format: cell-based, Salmonella enterica; conditions: ATCC 700408, 20 h
Experimental: as §1, §2

[3] = system: R. radiobatter ATCC 15955; experiment: Growth inhibition assay (MIC); format: cell-based, Rhizobium radiobacter
Experimental: as §1, §2

E. coli BL 21 AI = experiment: Growth inhibition assay (MIC); format: cell-based, Escherichia coli; conditions: 1% TSB, 37° C., 20 hrs
How it was run: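 Bacteria grown overnight in NB at 37° C. were adjusted to 5×10^6 CFU/mL in 1% TSB and mixed 1:1 with a two-fold peptide series (final 125 μg/mL–60 ng/mL). After 20 hrs at 37° C., A595 was read; triplicates.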

[4] = multidrug resistant strain, 1% TSB, 37° C., 20 hrs

| Molecule | MIC E. coli 45849 (E. coli 45849; 45849, 20 h) [µg/mL] | MIC S. typhi S5 (S. typhi S5) [µg/mL] | MIC E. coli D31 (E. coli D31) [µg/mL] | MIC K. Pneumonia 123132 (K. Pneumonia 123132; 20 h) [µg/mL] | MIC K. Pneumonia K6, ATCC 700603 [1] [µg/mL] | MIC S. enterica subsp. Enterica serovar. typhi G10215 ATCC 700408 [2] [µg/mL] | MIC R. radiobatter ATCC 15955 ([3]; ATCC 15955, 20 h) [µg/mL] | MIC E. coli 45849 (E. coli 45849; [4]) [µg/mL] | MIC K. Pneumonia 123132 (K. Pneumonia 123132; [4]) [µg/mL] | MIC R. radiobatter ATCC 15955 [3, 4] [µg/mL] | MIC E. coli BL 21 AI (E. coli BL 21 AI) [µg/mL] |
| --- | --- | --- | --- | --- | --- | --- | --- | --- | --- | --- | --- |
| CC[C@H](C)[C@H](NC(=O)[C@H](Cc1ccc(O)cc1)NC(=O)[C@@H](NC(=O)[C@@H]1CCCN1C(=O)[C@H](CCCNC(=N)N)NC(=O)[C@H](CC(N)=O)NC(=O)[C@H](CC(N)=O)NC(=O)[C@H](CCCN)NC(C)=O)C(C)C)C(=O)N1CCC[C@H]1C(=O)N[C@@H](CCCN)C(=O)N1CCC[C@H]1C(=O)N[C@@H](CCCNC(=N)N)C(=O)N1CCC[C@H]1C(=O)N1CCC[C@H]1C(=O)N[C@@H](Cc1c[nH]cn1)C(=O)N1CCC[C@H]1C(=O)N[C@@H](CCCNC(=N)N)C(=O)N[C@@H](CC1CCCCC1)C(N)=O [compound 46] (Ac-[Orn]NNRPVYIP[Orn]PRPPHPR[Cha]-NH2) | 32 (≈ 14.3 µM) | 32 (≈ 14.3 µM) | 16 (≈ 7.17 µM) | 32 to 64 | 32 to 64 | 8 (≈ 3.58 µM) | 10.5 (≈ 4.7 µM) |  |  |  |  |
| CC[C@H](C)[C@H](NC(=O)[C@H](Cc1ccc(O)cc1)NC(=O)[C@@H](NC(=O)[C@@H]1CCCN1C(=O)[C@H](CCCNC(=N)N)NC(=O)[C@H](CC(N)=O)NC(=O)[C@H](CC(N)=O)NC(=O)[C@@H](N)CCCN)C(C)C)C(=O)N1CCC[C@H]1C(=O)N[C@@H](CCCNC(=N)N)C(=O)N1CCC[C@H]1C(=O)N[C@@H](CCCNC(=N)N)C(=O)N1CCC[C@H]1C(=O)N1CCC[C@H]1C(=O)N[C@@H](Cc1c[nH]cn1)C(=O)N1CCC[C@H]1C(=O)N[C@@H](CCCNC(=N)N)C(=O)N(C)[C@@H](CC(C)C)C(N)=O [compound 47] (H-[Orn]NNRPVYIPRPRPPHPR[NMeL]-NH2) |  | 32 (≈ 14.5 µM) | 8 (≈ 3.63 µM) |  | 32 to 64 | 8 (≈ 3.63 µM) |  | 4 (≈ 1.81 µM) | 32 (≈ 14.5 µM) | 1.3 (≈ 0.589 µM) |  |
| CC[C@H](C)[C@H](NC(=O)[C@H](Cc1ccc(O)cc1)NC(=O)[C@@H](NC(=O)[C@@H]1CCCN1C(=O)[C@H](CCCNC(=N)N)NC(=O)[C@H](CC(N)=O)NC(=O)[C@H](CC(N)=O)NC(=O)[C@H](CCCN)NC(C)=O)C(C)C)C(=O)N1CCC[C@H]1C(=O)N[C@@H](CCCNC(=N)N)C(=O)N1CCC[C@H]1C(=O)N[C@@H](CCCNC(=N)N)C(=O)N1CCC[C@H]1C(=O)N1CCC[C@H]1C(=O)N[C@@H](Cc1c[nH]cn1)C(=O)N1CCC[C@H]1C(=O)N[C@@H](CCCNC(=N)N)C(=O)N[C@@H](CC(C)C)C(=O)OC [compound 48] (Ac-[Orn]NNRPVYIPRPRPPHPRL-OMe) |  | 4 (≈ 1.78 µM) | 64 (≈ 28.4 µM) |  | 128 (≈ 56.9 µM) | 16 (≈ 7.11 µM) |  | 4 (≈ 1.78 µM) | 32 (≈ 14.2 µM) | 1.3 (≈ 0.578 µM) |  |
| CC[C@H](C)[C@H](NC(=O)[C@H](Cc1ccc(O)cc1)NC(=O)[C@@H](NC(=O)[C@@H]1CCCN1C(=O)[C@H](CCCNC(=N)N)NC(=O)[C@H](CC(N)=O)NC(=O)[C@H](CC(N)=O)NC(=O)[C@H](CCCN)NC(C)=O)C(C)C)C(=O)N1CCC[C@H]1C(=O)N[C@@H](CCCN)C(=O)N1CCC[C@H]1C(=O)N[C@@H](CCCNC(=N)N)C(=O)N1CCC[C@H]1C(=O)N1CCC[C@H]1C(=O)N[C@@H](Cc1c[nH]cn1)C(=O)N1CCC[C@H]1C(=O)N[C@@H](CCCNC(=N)N)C(=O)N[C@@H](CC(C)C)C(=O)OC [compound 49] (Ac-[Orn]NNRPVYIP[Orn]PRPPHPRL-OMe) | 2 (≈ 0.906 µM) | 4 (≈ 1.81 µM) | 32 (≈ 14.5 µM) | 64 (≈ 29 µM) | 128 (≈ 58 µM) | 8 (≈ 3.62 µM) | 1.3 (≈ 0.589 µM) |  |  |  |  |
| KNNRPVYIPKPRPPHPRL-NH2 [compound 21] |  | 1 | 8 |  | 8 | 0.25 to 0.5 |  | <0.25 | 4 | 0.65 | 1.95 to 3.91 |
